Our source for the IC50, inhibition and CC50 values is patent US10626126B2, “Compounds” (Pulmocide Limited, priority 2016, dated 2020).

The IC50 is the point on the concentration scale where inhibition reaches its midpoint. A low value points to greater potency in that assay. As a reminder, the inhibition is the percentage by which the read-out fell short of the control. The low end stands for a response near the control, the high end for a response far below the control. A word on the CC50: it is the concentration giving 50% cytotoxicity. High values mean lower toxicity to the cells, low ones greater toxicity to the cells.

Format in all cases: cell-based
One series concerns RSV A2 strain. The experiment in a line: RSV A2 induced CPE in HEp2 cells. The conditions noted are these: human respiratory syncytial virus; for IC50: HEp-2, 120 h, 5 days; for inhibition at 0.01 µg/mL: HEp-2, at 0.01 μg/mL. The protocol: (§1) HEp2 cells were seeded (10^3/well/50 μL) in 384-well plates (Catalogue number 353962, BD Falcon, Oxford, UK) in 5% FBS-DMEM (containing 2 mM L-glutamine and 1 mM sodium pyruvate) one day before infection. […] Simultaneously, test compounds (0.5 μL DMSO solution) were added to 100 μL of HEp2 cell culture with virus solution to provide a final DMSO solution of 0.5%. […] Sigma-Aldrich, Dorset, UK) was added to each well and the plate incubated for a further 6 hr (37° C./5% CO2). The fluorescence of each well [545 nm (excitation)/590 nm (emission)] was determined using a multi-scanner (Clariostar: BMG, Buckinghamshire, UK). The percentage inhibition for each well was calculated and the IC50, IC75 and IC90 values were calculated from the concentration-response curve generated for each test compound.

Series [1] in a line: Cell viability: resazurin assay. The conditions noted are these: human, HEp2 cells. On the procedure: HEp2 cells were seeded in 384-well plates (10^3/well/50 μL; BD Falcon Ref 353962) in FBS DMEM (5%, containing 2 mM L-glutamine and 1 mM sodium pyruvate) one day before experimentation. Serum-free DMEM (50 μL) was added to test wells, while for control wells the media was removed and sterile water (100 μL) added. Test compounds (0.5 μL DMSO solution) were added to give a final DMSO concentration of 0.5%. HEp2 cells were incubated with each test compound for 5 days (37° C./5% CO2 in 2.5% FBS) and then resazurin stock solution (5 μL; 0.03%) was added to each well and the plate incubated for a further 6 hr (37° C./5% CO2). The fluorescence of each well at 545 nm (excitation) and 590 nm (emission) was determined using a multi-scanner (Clariostar: BMG Labtech). The percentage loss of cell viability was calculated for each well relative to vehicle (0.5% DMSO) treatment. Note that any apparent increase in cell viability associated with test compound treatment relative to vehicle is consequently tabulated as a negative percentage. Where appropriate, a CC50 value was calculated from the concentration-response curve generated from the concentration-response curve for each test compound.
For orientation: The colour change of resazurin is a common sign of viable cells or microbes.

The subject of the next series is RSV B Washington strain. Kind of series: RSV B induced CPE in HEp2 cells. The conditions noted are these: human respiratory syncytial virus; for IC50: HEp-2, 144 h, 6 days; for inhibition at 0.1 µg/mL: HEp-2, at 0.1 μg/mL; for inhibition at 1 µg/mL: HEp-2, at 1 μg/mL. The protocol:
as §1

In the series with RSV A2 strain, `O=C(Nc1c(F)cccc1F)c1cc2c(s1)-c1sccc1N(C(=O)c1ccc(NC(=O)c3cc4c(nc3N3CC5(CCOCC5)C3)CCC4)cc1)CC2` [Example 2, 4-(4-(2-(7-Oxa-2-azaspiro[3.5]nonan-2-yl)-6,7-dihydro-5H-cyclopenta[b]pyridine-3-carboxamido)benzoyl)-N-(2,6-difluorophenyl)-5,6-dihydro-4H-dithieno[3,2-b: 2′,3′-d]azepine-8-carboxamide] returned an IC50 of 0.00037 µM and an inhibition at 0.01 µg/mL of 97%. This molecule also showed a half-maximal cytotoxic concentration (CC50) at 5 days in series [1] greater than 13.3 µM. In the series on RSV B Washington strain, this molecule came in with a half-inhibitory concentration (IC50) of 0.0087 µM and an inhibition at 0.1 µg/mL of 86%.
In the series on RSV A2 strain, `[2H]c1c([2H])c(C(=O)N2CCc3cc(C(=O)Nc4c(F)cccc4F)sc3-c3sccc32)c([2H])c([2H])c1NC(=O)c1cc(C)cnc1N1CC2(CCOCC2)C1` [Example 3, N-(2,6-difluorophenyl)-4-(4-(5-methyl-2-(7-oxa-2-azaspiro[3.5]nonan-2-yl)nicotinamido)benz-y-2,3,5,6-d4)-5,6-dihydro-4H-dithieno[3,2-b:2′,3′-d]azepine-8-carboxamide] came in with an IC50 of 0.00015 µM and an inhibition at 0.01 µg/mL of 95%. Also, the 50% cytotoxic concentration (CC50) at 5 days in series [1] is greater than 13.7 µM. In the series on RSV B Washington strain, this molecule registered an IC50 of 0.014 µM and an inhibition at 0.1 µg/mL of 100%.
In the same order, the values of `Cc1cc(C(=O)Nc2ccc(C(=O)N3CCc4cc(C(=O)Nc5c(F)cccc5F)sc4-c4sccc43)cc2)c(N2CC3(CCOCC3)C2)nc1C` [Example 4, N-(2,6-Difluorophenyl)-4-(4-(5,6-dimethyl-2-(7-oxa-2-azaspiro[3.5]nonan-2-yl)nicotinamido)benzoyl)-5,6-dihydro-4H-dithieno[3,2-b:2′,3′-d]azepine-8-carboxamide] are 0.00028 µM, 96%, greater than 13.5 µM, 0.018 µM and 98%.
In the same order, the values of `Cc1ccc(C(=O)Nc2ccc(C(=O)N3CCc4cc(C(=O)Nc5c(F)cccc5F)sc4-c4sccc43)c(F)c2)c(N2CC3(CCOCC3)C2)n1` [Example 5, N-(2,6-Difluorophenyl)-4-(2-fluoro-4-(6-methyl-2-(7-oxa-2-azaspiro[3.5]nonan-2-yl)nicotinamido)benzoyl)-5,6-dihydro-4H-dithieno[3,2-b:2′,3′-d]azepine-8-carboxamide] are 0.00055 µM, 89%, greater than 13.4 µM, 0.019 µM and 97%.
Regarding `O=C(Nc1c(F)cccc1F)c1cc2c(s1)-c1sccc1N(C(=O)c1ccc(NC(=O)c3cccnc3N3CC4(CCOCC4)C3)cc1)CC2` [Example 6, 4-(4-(2-(7-oxa-2-azaspiro[3.5]nonan-2-yl)nicotin-amido)benzoyl)-N-(2,6-difluorophenyl)-5,6-dihydro-4H-dithieno[3,2-b:2′,3′-d]azepine-8-carboxamide], in the series with RSV A2 strain, the IC50 turned out to be 0.00044 µM and the inhibition at 0.01 µg/mL was 93%. In series [1], this molecule came in with a CC50 at 5 days greater than 14 µM. Moreover, in the series on RSV B Washington strain, the IC50 stood at 0.063 µM and at 1 µg/mL the inhibition was 95%.
In the same order, the values of `O=C(Nc1c(F)cccc1F)c1cc2c(s1)-c1sccc1N(C(=O)c1ccc(NC(=O)c3cccnc3N3CC4(CCOCC4)C3)cc1F)CC2` [Example 7, 4-(4-(2-(7-oxa-2-azaspiro[3.5]nonan-2-yl)nicotinamido)-2-fluorobenzoyl)-N-(2,6-difluorophenyl)-5,6-dihydro-4H-dithieno[3,2-b:2′,3′-d]azepine-8-carboxamide] are 0.0026 µM, 87%, greater than 13.7 µM, 0.097 µM and 82%.
